According to patent US5888504A, “Natural composition for combatting fungi” (Van den Bergh Foods Co., Division of Conopco, Inc., priority 1995, dated 1999):
“Also recorded” adds a separate entry of the source.

Columns and labels:
Type in all cases: cell-based
Aspergillus niger = test: Outgrowth of Aspergillus niger spores in malt extract broth/agar, microtitre plate, OD 620 nm; settings: no enzyme
Protocol: An aqueous solution (demineralised water) was prepared containing 0.2 wt. % of the antifungal substance NovoZyme™ 234 and 0.002 wt. % of nisin. 75 μl of the solution were warmed to 20° C. and added to the well of a microtitre plate. Then 75 μl of a solution containing 4 wt. % of malt extract broth (ex Oxoid), 0.75 wt. % of agar (ex Difco) and 1000 spores of the fungus Aspergillus niger was heated to 25° C. and added to the test solution in the well (pH 5.1).
The procedure was repeated with solutions containing 0.004, 0.008, 0.016, 0.032 and 0.064 wt. % of nisin. The contents of the wells were thoroughly mixed and 75 μl of paraffin oil was loaded on top of the mixture. Finally, the plates were sealed with an oxygen permeable foil (Merlin).
During 360 hours the OD 620 nm was measured at regular intervals using a Multiscan devise MCC 340. Fungal outgrowth was defined when an OD (optical density) increase of at least 0.1 occurred.
[…] 75 μl of the solution were warmed to 20° C. and added to the well of a microtitre plate. Then 75 μl of a solution containing 4 wt. % malt extract broth (ex Oxoid), 0.75 wt. % agar (ex Difco) and 1000 spores of the fungus Aspergillus niger was heated to 25° C. and added to the test solution in the well (pH 5.1). […] During 360 hours the OD 620 nm was measured at regular intervals using a Multiscan devise MCC 340. […]

Paecilomyces variotii [1] = test: Outgrowth of Paecilomyces variotii spores, microtitre plate (Example 2 repeated); settings: histatin without enzyme
Protocol: An aqueous solution (demineralised water) was prepared containing 0.2 wt. % of the antifungal substance NovoZyme™ 234 and 0.002 wt. % of histatin. 75 μl of the solution were warmed to 20° C. and added to the well of a microtitre plate. Then 75 μl of a solution containing 4 wt. % malt extract broth (ex Oxoid), 0.75 wt. % agar (ex Difco) and 1000 spores of the fungus Aspergillus niger was heated to 25° C. and added to the test solution in the well (pH 5.1). The procedure was repeated with solutions containing 0.004, 0.008, 0.016, 0.032 and 0.064 wt. % of histatin. The contents of the wells were thoroughly mixed and 75 μl of paraffin oil was loaded on top of the mixture. Finally, the plates were sealed with an oxygen permeable foil (Merlin). During 360 hours the OD 620 nm was measured at regular intervals using a Multiscan devise MCC 340. Fungal outgrowth was defined when an OD increase of at least 0.1 occurred.
Example 2 is repeated with the fungus Paecilomyces variotii.

Paecilomyces variotii [2] = test: Extent of outgrowth of Paecilomyces variotii in malt extract broth in serum bottles; settings: 1 μM carvacrol, absence of enzyme; observed during ten days
Protocol: Solutions (30 ml) were prepared containing […] dissolved in malt extract broth. Novozyme™234 was present in concentrations of 1, 0.1 and 0 mg/ml. For comparison a solution was prepared containing 1 mg/ml of Novozyme™, but without carvacrol and one in which both enzyme and carvacrol were absent. 50 ml serum bottles filled with the solutions were inoculated with 1000 spores of Paecilomyces variotii. The height of the bars of FIG. 5 indicates the extent of outgrowth of the fungi observed during ten days. The highest bars ("100") indicate full outgrowth of the fungi, which occurs in solutions without carvacrol and with 1 mg/ml or less enzyme. Observed growth inhibition is expressed by the "50" bars. The presence of 1 μM carvacrol causes inhibition of growth, even in the absence of enzyme. When 1 mg/ml of enzyme is present together with 1 μM of carvacrol even germination of the fungal spores ("25" bars) does no longer occurs.

Penicillium roqueforti = test: Outgrowth of Penicillium roqueforti inoculated on processed cheese; settings: nisin 0.05 wt. % or NovoZyme 234 2 wt. % singly
Source text: The surface of processed cheese was inoculated in the centre with Penicillium roqueforti. Admixture of nisin of the lytic enzymes was done in a laminar air flow cabinet. The samples were observed during 16 days (see FIG. 7).
Fungal growth is expressed as the diameter of the colonies. When NovoZyme™ 234 (2 wt. %) was present fungal outgrowth was considerably delayed and became visible only after 12 days.

## histatin
Aspergillus niger; histatin 0 to 0.032 wt. %, particularly at 0.008 wt. % and higher
  retarding fungal growth (time needed for outgrowth): slightly active in retarding fungal growth
Paecilomyces variotii [1]
  concentration at which fungal growth inhibition is shown: ≥ 0.004 wt. %

## Cc1ccc(C(C)C)cc1O [carvacrol]
Paecilomyces variotii [2]
  extent of outgrowth (height of bar): 50

## nisin
Aspergillus niger; nisin 0 to 0.032 wt. %, pH 5.1, followed 360 hours
  effect on postponing the onset of fungal growth (time needed for outgrowth): no fungal growth inhibition has been observed; also recorded: no substantial effect
Penicillium roqueforti
  time after which fungal outgrowth showed: 4 days
